Experimental data reported in PubChem BioAssay (NCI).
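Values below derive from 48-hour exposures of cells grown in 96-well plates, with endpoints linearly interpolated between the two concentrations bracketing the appropriate inhibition level. The concentration for 50% growth inhibition is given as GI50. TGI marks complete inhibition of growth.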

Assays:
Assay in all cases: NCI-60 cell line screen, 48 h
[1] = system: NCI-H460 lung
[2] = system: HL-60(TB) leukemia
[3] = system: 786-0 renal
[4] = system: HCT-15 colon
[5] = system: OVCAR-3 ovarian
[6] = system: SN12C renal
[7] = system: RPMI-8226 leukemia
[8] = system: M14 melanoma
[9] = system: UACC-62 melanoma
[10] = system: SNB-19 CNS
[11] = system: CAKI-1 renal
[12] = system: SK-MEL-5 melanoma
[13] = system: HOP-92 NSCLC
[14] = system: COLO 205 colon
[15] = system: SF-295 CNS
[16] = system: SK-OV-3 ovarian
[17] = system: T-47D breast
[18] = system: MOLT-4 leukemia
[19] = system: A549 NSCLC
[20] = system: ACHN renal
[21] = system: HCT-116 colon
[22] = system: PC-3 prostate
[23] = system: SK-MEL-28 melanoma
[24] = system: NCI-H226 lung
[25] = system: OVCAR-8 ovarian
[26] = system: HS 578T breast
[27] = system: SW-620 colon
[28] = system: DU-145 prostate
[29] = system: CCRF-CEM leukemia
[30] = system: TK-10 renal
[31] = system: NCI-H23 lung
[32] = system: U251 CNS
[33] = system: HT29 colon
[34] = system: SF-268 CNS
[35] = system: MDA-MB-435
[36] = system: RXF 393 renal
[37] = system: A498 renal
[38] = system: MDA-MB-231 breast
[39] = system: SK-MEL-2 melanoma
[40] = system: MCF7 breast
[41] = system: UACC-257 melanoma
[42] = system: SNB-75 CNS
[43] = system: UO-31 renal
[44] = system: OVCAR-4 ovarian
[45] = system: HOP-62 NSCLC
[46] = system: NCI-H522 lung
[47] = system: MALME-3M melanoma
[48] = system: LOX IMVI melanoma
[49] = system: SR leukemia
[50] = system: NCI/ADR-RES ovarian
[51] = system: IGROV1 ovarian
[52] = system: SF-539 CNS
[53] = system: HCC-2998 colon
[54] = system: EKVX NSCLC
[55] = system: BT-549 breast
[56] = system: K-562 leukemia
[57] = system: KM12 colon
[58] = system: OVCAR-5 ovarian

## CCO/C=N/C1=C(C#N)C(c2ccc(Cl)cc2)c2sc3c(CC)cccc3c2O1 (stereo unspecified)
[1]
  GI50: 1.74 µM
  TGI: 14.2 µM
[2]
  GI50: 1.34 µM
  TGI: 11.7 µM
[3]
  GI50: 2.23 µM
  TGI: 14 µM
[4]
  GI50: 0.617 µM
  TGI: 10.6 µM
[5]
  GI50: 0.813 µM
  TGI: 13.2 µM
[6]
  GI50: 3.03 µM
  TGI: 14.5 µM
[7]
  GI50: 2.42 µM
  TGI: 14.4 µM
[8]
  GI50: 1.21 µM
  TGI: 11.7 µM
[9]
  GI50: 0.596 µM
  TGI: 17.4 µM
[10]
  GI50: 1.9 µM
  TGI: 13.9 µM
[11]
  GI50: 0.703 µM
  TGI: 18 µM
[12]
  GI50: 4.19 µM
  TGI: 16.4 µM
[13]
  GI50: 1.53 µM
  TGI: 17.8 µM
[14]
  GI50: 3.36 µM
  TGI: 11.1 µM
[15]
  GI50: 0.331 µM
  TGI: 1.27 µM
[16]
  GI50: 5.26 µM
  TGI: 21 µM
[17]
  GI50: 2.51 µM
  TGI: 15.5 µM
[18]
  GI50: 3.02 µM
  TGI: 17 µM
[19]
  GI50: 1.25 µM
  TGI: 17.2 µM
[20]
  GI50: 1.21 µM
  TGI: 15.4 µM
[21]
  GI50: 0.801 µM
  TGI: 12.5 µM
[22]
  GI50: 0.788 µM
  TGI: 11.4 µM
[23]
  GI50: 4.04 µM
  TGI: 20.4 µM
[24]
  GI50: 5.94 µM
  TGI: 25.3 µM
[25]
  GI50: 2.77 µM
  TGI: 15.1 µM
[26]
  GI50: 1.85 µM
  TGI: 12.6 µM
[27]
  GI50: 0.71 µM
  TGI: 16.9 µM
[28]
  GI50: 2.49 µM
  TGI: 12.4 µM
[29]
  GI50: 1.66 µM
  TGI: 24.9 µM
[30]
  GI50: 7.79 µM
  TGI: 20.6 µM
[31]
  GI50: 2.56 µM
  TGI: 13.1 µM
[32]
  GI50: 2.38 µM
  TGI: 13.5 µM
[33]
  GI50: 2.39 µM
  TGI: 10.1 µM
[34]
  GI50: 4.99 µM
  TGI: 21.1 µM
[35]
  GI50: 0.307 µM
  TGI: 0.878 µM
[36]
  GI50: 1.41 µM
  TGI: 5.57 µM
[37]
  GI50: 0.416 µM
  TGI: 10.7 µM
[38]
  GI50: 3.96 µM
  TGI: 16.9 µM
[39]
  GI50: 1.65 µM
  TGI: 18.3 µM
[40]
  GI50: 0.475 µM
  TGI: 10.7 µM
[41]
  GI50: 11.1 µM
  TGI: 26.1 µM
[42]
  GI50: 0.206 µM
  TGI: 2.01 µM
[43]
  GI50: 2.2 µM
  TGI: 16 µM
[44]
  GI50: 4.79 µM
  TGI: 19.6 µM
[45]
  GI50: 4.78 µM
  TGI: 23.6 µM
[46]
  GI50: 0.433 µM
  TGI: 4.57 µM
[47]
  GI50: 10.1 µM
  TGI: 22.6 µM
[48]
  GI50: 1.45 µM
  TGI: 14.4 µM
[49]
  GI50: 0.651 µM
  TGI: 18.4 µM
[50]
  GI50: 0.475 µM
  TGI: 3.14 µM
[51]
  GI50: 0.702 µM
  TGI: 14.7 µM
[52]
  GI50: 1.43 µM
  TGI: 3.6 µM
[53]
  GI50: 1.65 µM
  TGI: 4.95 µM
[54]
  GI50: 2.11 µM
  TGI: 14.8 µM
[55]
  GI50: 2.64 µM
  TGI: 16.5 µM
[56]
  GI50: 0.553 µM
  TGI: 20.6 µM
[57]
  GI50: 0.876 µM
  TGI: 12.5 µM
[58]
  GI50: 3.24 µM
  TGI: 14.4 µM
